Measurements taken from US8653048B2 (Sanlugen Pharmatech Ltd., priority 2009, dated 2014).

Tests used:
[1] = tested on: NCI-H460 tumor transplanted in nude mice; assay: NCI-H460 tumor transplanted in nude mice, intravenous administration; conditions: for weight loss rate: NCI-H460 nude mice; for effect on NCI-H460 tumor (growth curve and tumor weight), in words: i.v. every three days x4, SL-01 5, 10, 20 mg/Kg, GEM 10 mg/Kg
Experimental: The highest concentrations of both were 10 mg/mL and 240 mg/mL, respectively. […] Assuming that each mouse weighed 20 g and 0.1 mL of drug solution was administered, then the dosage of SL-01 at 5, 10 or 20 mg/kg needed drug concentrations of 1, 2, 4 mg/mL, respectively.
Cell lines and cultivation: the NCI-H460 lung cancer cell line, the HepG2 liver cancer cell line, or the HT29 colon cancer cell line were cultured by adherent culturing in D-MEM (Gibco, Inc.) containing 10% fetal calf serum. These cells were passaged once by a dilution of 1:3 in every 2-3 days. The cells were collected when they were passaged to grow into 25 of 10 cm culture dishes.
3.1 The establishment of a model of transplanted tumors in nude mice: Well-grown NCI-H460 cells, HT29 cells or HepG2 cells were collected (25 of 10 cm culture dishes). The cell concentration was adjusted to 1.5×10^7/mL with serum-free DMEM. 200 μL cell suspension was inoculated into the right back of 6 weeks old male BALB/C nude mice by subcutaneous injection using a 1 mL syringe.
The treatment starting day was the first day (d0). The corresponding drugs were injected intravenously to the tail vein every three days. The administration volume to each mouse was adjusted according to its body weight. A total of four administrations (d0, d3, d6, d9) were applied. The long and short tumor pathlines were measured with a slide caliper at the beginning of the administration and every 3 days thereafter. The tumor volume V was calculated (V=½ab^2, a is the tumor long pathline, b is the tumor short pathline). The growth curve was drawn with the time as the horizontal axis, and tumor volume as the vertical axis. The experiment was terminated when the tumor size of the control group reached 3000 mm^3. Blood samples were taken from the eyeball and thereafter the nude mice were euthanized by back neck vertebra cervical dislocation. The tumor tissues were removed and weighed. The inhibition rate of tumor growth was calculated.

[2] = Physiological stability in PBS (pH=7.4) (HPLC); format: physicochemical; conditions: for stability in PBS (pH=7.4) (in words): 0-24 h; for HPLC peak area of drug: PBS (pH = 7.4)
[3] = tested on: H460 cells, a human lung cancer cell line, inoculated in nude mice; assay: H460 tumor in nude mice, oral administration of SL-01; format: in vivo, Balb/c female nude mice; conditions: for Tumor Weight, Average Value: end of the experiment; for drop of animal weight: figure fits day 22 versus negative control (Table 13)
Experimental: 1. […] Suspension formulation was prepared using 2.5% starch for intragastric administration. […] In the test, it was dissolved in normal saline and filtered with microfiltration membrane and administrated by tail vein injection. Positive control drug: Ftorafur (FT-207) produced by Qilu Pharmaceutical Co. Ltd., oral formulation.
2. Experimental animals: 50 Balb/c female nude mice at 4-5 weeks old, purchased from Peking University Health Science Center.
1. Culture of tumor cells: H460 cells were cultured in an incubator with 5% CO2 at 37° C. using RPMI-1640 nutrient solution containing 10% fetal calf serum. The cells were passaged through routine method.
2.2 Method of inoculating tumor cells in nude mice: cells were collected when they grew to about […] in culture flasks. Cells were washed twice with PBS before they were digested, then 1.5 mL of digestion solution juices was added into every bottle. They were observed under a microscope and the digestion was terminated after the cells were shed. Cell suspension was collected into 50 mL of centrifugal tube and centrifuged and washed twice with PBS. It was counted and suspended with 10 mL of normal saline to get the tumor cell suspension of inoculated nude mice. The tumor cells (1×10^7/0.2 mL) were inoculated in the left front armpits of mice. The tumor growth was observed after the inoculation.
4. Evaluation protocols for drug treating effect: these mice were weighed before drug administration and every week thereafter. The long tumor pathline (a) and the short tumor pathline (b) were measured at the same time. The formula for calculating the tumor volume is V=(a×b^2)/2. Mice were euthanized after drug administration for 3 weeks. The tumor was taken out and weighed. […] W was the tumor weight of the treatment group.

[4] = Metabolism in liver microsomal enzymes (liver S9 fraction); format: in vitro ADME, mouse; conditions: for HPLC peak area of drug: liver S9 fraction + NADPH, 37° C.; for Degrade %: liver S9 fraction
Experimental: The liver of a mouse was taken out and washed by cold normal saline and dried with filter paper, then cut into small pieces. They were washed 2-3 times with ice cold PBS (pH=7.4) until the elute became colorless or faint yellow. The small pieces of the liver were cut into fragments. Then PBS (pH=7.4) solution in an amount four times of the weight of the liver was added. The liver fragments were homogenated under ice-bath to avoid the down-regulation of enzymatic activity. The homogenated mixture was transferred into a centrifuge tube with stopper and centrifuged for 20 min at 4000 r/min to get the supernatant. Then, the supernatant was centrifuged at 12000 r/min for 20 min to get the supernatant, which was the S9 fraction.
Liver microsomal S9 was mixed with drug solutions. 1800 μL of the mixture in test tube was pre-incubated in a water-bath for 5 min at 37° C. 200 μL of 10 mmol/L NADPH solution was added to start the reaction. The final reaction volume was 2 mL. 200 μL of the incubation solution was taken at 0 min, 10 min, 20 min, 40 min, 1 h, 2 h, 4 h, 6 h, 12 h, respectively. 1 mL of ice cold isopropanol was added into the solution immediately and vortexed for 30 s and kept still for 5 min. 2.5 mL of EtOAc was added and vortexed and centrifuged at 4000 rpm for 15 min. The supernatant was taken and dried by blowing in nitrogen. The dried sample was redissolved in 200 μL HPLC mobile phase solution. 20 μL sample was loaded to the HPLC. The chromatography and peak area were recorded.

[5] = SL-01 middle dosage 60 mg/kg gavage
[6] = SL-01 middle dosage group 60 mg/kg gavage
[7] = SL-01 small dosage 30 mg/kg gavage
[8] = SL-01 small dosage group 30 mg/kg gavage

CCCCCCCCCCCCOC(=O)c1nccnc1C(=O)Nc1ccn([C@@H]2O[C@H](CO)[C@@H](O)C2(F)F)c(=O)n1 [Compound 4, Dodecyl-3-((1-((2R,4R,5R)-3,3-difluoro-4-hydroxy-5-(hydroxymethyl)-tetrahydrofuran-2-yl)-2-oxo-1,2-dihydropyrimidin-4-yl)carbamoyl)pyrazine-2-carboxylate]
weight loss rate ([1]; SL-01 high dose group 20 mg/Kg i.v.): 7% | effect on NCI-H460 tumor (growth curve and tumor weight), in words [1]: inhibitory effect | stability in PBS (pH=7.4) (in words) [2]: stable | HPLC peak area of drug ([2]; 0 min): 399795.688 | HPLC peak area of drug ([2]; 1 h): 379856.688 | HPLC peak area of drug ([2]; 2 h): 397725 | HPLC peak area of drug ([2]; 4 h): 373725.406 | HPLC peak area of drug ([2]; 6 h): 360109.813 | HPLC peak area of drug ([2]; 8 h): 362068.688 | HPLC peak area of drug ([2]; 12 h): 386125.688 | HPLC peak area of drug ([2]; 24 h): 387541.688 | Mean Volume of Tumor ([3]; SL-01 middle dosage 60 mg/kg gastric gavage 1 per 3 days, day 7): 739.6 mm^3 | Mean Volume of Tumor ([3]; SL-01 middle dosage 60 mg/kg gastric gavage 1 per 3 days, day 14): 823.4 mm^3 | Mean Volume of Tumor ([3]; SL-01 middle dosage 60 mg/kg gastric gavage 1 per 3 days, day 18): 870.2 mm^3 | Mean Volume of Tumor ([3]; SL-01 middle dosage 60 mg/kg gastric gavage 1 per 3 days, day 22): 905.3 mm^3 | Inhibition ratio (tumor weight) [3, 5]: 53.7% | Mean Weight of Nude Mice ([3]; SL-01 middle dosage 60 mg/kg gavage, day 0): 19.5 g | Mean Weight of Nude Mice ([3]; SL-01 middle dosage 60 mg/kg gavage, day 7): 19.1 g | Mean Weight of Nude Mice ([3]; SL-01 middle dosage 60 mg/kg gavage, day 14): 19.6 g | Mean Weight of Nude Mice ([3]; SL-01 middle dosage 60 mg/kg gavage, day 22): 19.6 g | Tumor Weight, Average Value [3, 5]: 0.95 g | efficacy by t-test, in words [3, 6]: significant efficacy | drop of animal weight [3, 6]: 14.8% | Mean Volume of Tumor ([3]; SL-01 small (low) dosage 30 mg/kg gastric gavage 1 per 3 days, day 7): 761.3 mm^3 | Mean Volume of Tumor ([3]; SL-01 small (low) dosage 30 mg/kg gastric gavage 1 per 3 days, day 14): 840.9 mm^3 | Mean Volume of Tumor ([3]; SL-01 small (low) dosage 30 mg/kg gastric gavage 1 per 3 days, day 18): 950.5 mm^3 | Mean Volume of Tumor ([3]; SL-01 small (low) dosage 30 mg/kg gastric gavage 1 per 3 days, day 22): 1092.0 mm^3 | Inhibition ratio (tumor weight) [3, 7]: 48.3% | Mean Weight of Nude Mice ([3]; SL-01 small dosage 30 mg/kg gavage, day 0): 19.6 g | Mean Weight of Nude Mice ([3]; SL-01 small dosage 30 mg/kg gavage, day 7): 19.3 g | Mean Weight of Nude Mice ([3]; SL-01 small dosage 30 mg/kg gavage, day 14): 19.9 g | Mean Weight of Nude Mice ([3]; SL-01 small dosage 30 mg/kg gavage, day 22): 19.7 g | Tumor Weight, Average Value [3, 7]: 1.06 g | efficacy by t-test, in words [3, 8]: significant efficacy | drop of animal weight [3, 8]: 14.3% | HPLC peak area of drug ([4]; 0 min): 179613.3 | HPLC peak area of drug ([4]; 1 h): 172893.5 | HPLC peak area of drug ([4]; 2 h): 142419.3 | HPLC peak area of drug ([4]; 4 h): 64632.59 | HPLC peak area of drug ([4]; 6 h): 27009.4 | HPLC peak area of drug ([4]; 12 h): 18730.51 | Degrade % ([4]; 0 min): 0% | Degrade % ([4]; 1 h): 3.74% | Degrade % ([4]; 2 h): 20.71% | Degrade % ([4]; 4 h): 64.02% | Degrade % ([4]; 6 h): 84.96% | Degrade % ([4]; 12 h): 89.57%

Nc1ccn([C@@H]2O[C@H](CO)[C@@H](O)C2(F)F)c(=O)n1 [Gemcitabine, gemcitabine, reference compound]
weight loss rate ([1]; gemcitabine positive control 10 mg/Kg i.v.): 14% | effect on NCI-H460 tumor (growth curve and tumor weight), in words [1]: inhibitory effect | stability in PBS (pH=7.4) (in words) [2]: stable | HPLC peak area of drug ([2]; 0 min): 657583.875 | HPLC peak area of drug ([2]; 1 h): 646932.375 | HPLC peak area of drug ([2]; 2 h): 651326.375 | HPLC peak area of drug ([2]; 4 h): 647537.813 | HPLC peak area of drug ([2]; 6 h): 618724 | HPLC peak area of drug ([2]; 8 h): 635026.875 | HPLC peak area of drug ([2]; 12 h): 600425.125 | HPLC peak area of drug ([2]; 24 h): 603669.813 | Mean Volume of Tumor ([3]; Gemcitabine 30 mg/kg i.v. 1 per 3 days, day 7): 700.7 mm^3 | Mean Volume of Tumor ([3]; Gemcitabine 30 mg/kg i.v. 1 per 3 days, day 14): 759.7 mm^3 | Mean Volume of Tumor ([3]; Gemcitabine 30 mg/kg i.v. 1 per 3 days, day 18): 804.5 mm^3 | Mean Volume of Tumor ([3]; Gemcitabine 30 mg/kg i.v. 1 per 3 days, day 22): 868.0 mm^3 | Mean Weight of Nude Mice ([3]; Gemcitabine 30 mg/kg i.v., day 0): 19.1 g | Mean Weight of Nude Mice ([3]; Gemcitabine 30 mg/kg i.v., day 7): 19.0 g | Mean Weight of Nude Mice ([3]; Gemcitabine 30 mg/kg i.v., day 14): 18.6 g | Mean Weight of Nude Mice ([3]; Gemcitabine 30 mg/kg i.v., day 22): 18.2 g | Tumor Weight, Average Value ([3]; Gemcitabine 30 mg/kg i.v.): 0.89 g | efficacy by t-test, in words ([3]; gemcitabine group 30 mg/kg i.v.): significant efficacy | Degrade % ([4]; 0 min): 0% | Degrade % ([4]; 1 h): 3.64% | Degrade % ([4]; 2 h): 56.16% | Degrade % ([4]; 4 h): 72.02% | Degrade % ([4]; 6 h): 85.55% | Degrade % ([4]; 12 h): 95.13%
